# Experimental data: patent US12410220B2, “Modulation of mammalian cell lineage by synthetic immodulins” (priority 2021, dated 2025)
# Marks after values point to notes of the source that are not given here. Peptide text beside a SMILES is read from it.
# Key:
# [1] = biological target: T1, RXR-alpha (Homo sapiens, UniProt P19793); experiment: Experiment 4B binding to full length RXR-alpha; conditions: 400 ng/well protein; 800 ng/well SA488-labelled peptide, 2 hours
# T1 construct: 400 ng/well full length RXR-alpha, RXR-beta, RXR-gamma or PPAR-gamma; purchased Abcam, Cambridge, MA
# T1 sequence (P19793 1-462): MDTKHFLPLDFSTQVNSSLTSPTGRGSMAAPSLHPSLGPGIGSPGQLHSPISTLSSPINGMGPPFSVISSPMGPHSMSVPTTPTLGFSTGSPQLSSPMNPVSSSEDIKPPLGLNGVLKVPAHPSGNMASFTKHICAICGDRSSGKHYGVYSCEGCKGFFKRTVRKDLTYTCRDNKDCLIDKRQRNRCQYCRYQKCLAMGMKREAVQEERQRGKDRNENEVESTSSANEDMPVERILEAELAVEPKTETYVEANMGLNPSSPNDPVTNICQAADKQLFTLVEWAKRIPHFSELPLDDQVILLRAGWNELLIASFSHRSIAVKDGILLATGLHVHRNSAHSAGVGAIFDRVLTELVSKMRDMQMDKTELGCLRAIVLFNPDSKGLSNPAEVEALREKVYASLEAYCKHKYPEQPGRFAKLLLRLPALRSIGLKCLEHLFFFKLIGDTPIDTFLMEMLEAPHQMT
# Description: (§1) Experiment 4B. Binding of immodulin peptides to RXR isoforms and domains. 100 ng/well recombinant human RXRa-DBD or RXRa-LBD, or 400 ng/well full length RXR-alpha, RXR-beta, RXR-gamma or PPAR-gamma (Abcam, Cambridge, MA) was adsorbed to wells of a 96-well plate for 60 minutes at room temperature, then blocked with 200 uL 1% BSA in PBS buffer overnight. The plate was washed with PBS and 800 ng/well Streptavidin-Alexa 488 conjugate (SA488)-labelled peptide was added. The plate was incubated for 2 hours at room temperature, washed and counted in a fluorometer (excitation/emission 485/525 nm). Significant binding above background is also shown (**p<0.05). […] When tested against domains of RXR-alpha, these peptides bind the DNA-binding domain (DBD) better than the ligand-binding domain (LBD).
# [2] = biological target: T2, RXR-gamma (Homo sapiens, UniProt P48443); experiment: Experiment 4B binding to full length RXR-gamma; conditions: 400 ng/well protein; 800 ng/well SA488-labelled peptide, 2 hours
# T2 construct: 400 ng/well full length RXR-alpha, RXR-beta, RXR-gamma or PPAR-gamma; purchased Abcam, Cambridge, MA
# T2 sequence (P48443 1-463): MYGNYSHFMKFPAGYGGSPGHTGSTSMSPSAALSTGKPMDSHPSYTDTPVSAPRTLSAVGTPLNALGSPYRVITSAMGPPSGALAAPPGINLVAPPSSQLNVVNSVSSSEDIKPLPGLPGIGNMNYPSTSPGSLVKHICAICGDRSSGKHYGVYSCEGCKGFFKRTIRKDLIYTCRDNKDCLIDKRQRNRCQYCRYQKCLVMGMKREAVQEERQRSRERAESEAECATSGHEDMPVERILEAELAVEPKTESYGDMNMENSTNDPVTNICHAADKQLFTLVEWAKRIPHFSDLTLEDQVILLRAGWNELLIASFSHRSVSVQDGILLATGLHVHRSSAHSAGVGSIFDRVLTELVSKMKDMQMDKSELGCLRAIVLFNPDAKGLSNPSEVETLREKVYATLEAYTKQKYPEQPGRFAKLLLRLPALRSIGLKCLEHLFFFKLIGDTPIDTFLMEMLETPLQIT
# Description: as §1
# [3] = biological target: T3, PPAR-gamma (Homo sapiens, UniProt P37231); experiment: Experiment 4B binding to full length PPAR-gamma; conditions: 400 ng/well protein; 800 ng/well SA488-labelled peptide, 2 hours
# T3 construct: 400 ng/well full length RXR-alpha, RXR-beta, RXR-gamma or PPAR-gamma; purchased Abcam, Cambridge, MA
# T3 sequence (P37231 1-505): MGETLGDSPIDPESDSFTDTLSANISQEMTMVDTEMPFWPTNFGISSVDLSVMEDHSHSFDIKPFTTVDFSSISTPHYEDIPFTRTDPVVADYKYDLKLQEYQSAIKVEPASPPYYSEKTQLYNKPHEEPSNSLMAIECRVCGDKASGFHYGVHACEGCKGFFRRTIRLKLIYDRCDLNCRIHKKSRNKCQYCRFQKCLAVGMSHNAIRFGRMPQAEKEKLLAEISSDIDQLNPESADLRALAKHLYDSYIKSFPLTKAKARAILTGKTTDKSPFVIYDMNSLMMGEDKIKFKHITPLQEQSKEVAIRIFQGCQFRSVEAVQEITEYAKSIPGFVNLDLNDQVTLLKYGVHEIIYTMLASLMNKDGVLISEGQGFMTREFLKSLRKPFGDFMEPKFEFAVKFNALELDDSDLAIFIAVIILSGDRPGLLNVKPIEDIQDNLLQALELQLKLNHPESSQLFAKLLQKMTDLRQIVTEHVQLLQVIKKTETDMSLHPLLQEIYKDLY
# Description: as §1
# [4] = Experiment 4D binding to FITC-labelled heparin; conditions: biotinylated peptide 1 ug/well; 1 ug FITC-labelled heparin, 90 minutes
# Summary of the method: (§2)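 Biotinylated peptides (1 ug/well) bound to streptavidin plates for 60 min at room temperature, then 1 ug FITC-labelled heparin or hyaluronic acid in PBS added for 90 min at room temperature, in quadruplicate. After washes, fluorescence read at 488/525 nm and counts normalized to immX3 peptide binding = 100.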
# [5] = Experiment 4D binding to FITC-labelled hyaluronic acid; conditions: biotinylated peptide 1 ug/well; 1 ug FITC-labelled hyaluronic acid, 90 minutes
# Summary of the method: as §2
# [6] = test system: HFF-1 human fibroblast cell line; experiment: Collagen-1 ELISA in HFF-1 dermal fibroblasts; format: cell-based; conditions: peptide 2 uM, 72 hour incubation
# Description: Immodulin peptides have potential untility in the field of cosmetics. HFF-1 human fibroblast cell line was obtained from the American Type Culture Collection (ATCC). Cells were grown in a T-75 flask in DMEM Medium containing 10% fetal bovine serum and penicillin-streptomycin at 37° C. in a humidified, 5% CO2 incubator. Cells (100 µl, 2,000 cells/well) were plated in a 96-well plate and incubated overnight at 37° C. in a humidified, 5% CO2 incubator. Next day, 10 µl/well of compounds were added (quadruplicate wells). After 72 hour incubation with the compound, supernatants were collected for Collagen-1 ELISA assay and cell viability was measured in a luminometer after the addition of 100 IL/well CellTiterGlo reagent (Promega Inc, Madison, WI) as recommended by the manufacturer. Collagen stimulating activity of immodulin peptides in HFF-1 dermal fibroblasts: Peptides were added to cells at 2 uM. COL1 immunoreactivity was measured in the supernatants of cultured cells by ELISA using a rabbit monoclonal anti-COL1 primary antibody (Abcam, Cambridge, MA). Control (buffer) value of immunoreactivity was set to 100.
Compound,Binding to RXR-alpha relative to imm3 binding to RXR-gamma (=100) [1],Binding to RXR-gamma relative to imm3 binding (=100) [2],Binding to PPAR-gamma relative to imm3 binding (=100) [3],"Heparin binding, counts normalized for immX3 peptide binding=100 [4]","Hyaluronate binding, counts normalized for immX3 peptide binding=100 [5]","COL1 immunoreactivity in supernatants, control (buffer) set to 100 [6]"
N=C(N)NCCC[C@H](NC(=O)CNC(=O)[C@H](CCCCN)NC(=O)[C@H](CO)NC(=O)[C@@H]1CCCN1C(=O)[C@H](CCCNC(=N)N)NC(=O)[C@H](CS)NC(=O)[C@H](CCC(N)=O)NC(=O)[C@H](CCCCN)NC(=O)[C@H](CCCCN)NC(=O)[C@H](CCCCN)NC(=O)[C@H](Cc1ccc(O)cc1)NC(=O)[C@H](Cc1ccccc1)NC(=O)CNC(=O)[C@H](CCCCN)NC(=O)[C@@H](N)CCCCN)C(=O)N[C@@H](CCCCN)C(=O)N[C@@H](CCCNC(=N)N)C(=O)NCC(=O)N[C@@H](Cc1ccccc1)C(=O)N[C@@H](CS)C(=O)N[C@@H](Cc1c[nH]c2ccccc12)C(=O)O [imm3] (H-KKGFYKKKQCRPSKGRKRGFCW-OH; N-terminus and C-terminus assumed),11.2 ± 1.0**,100.0 ± 16.5**,2.1 ± 1.4,104.2 ± 22.0,57.2 ± 5.7**,101
CC(C)C[C@H](NC(=O)[C@H](C)NC(=O)[C@@H]1CCCN1C(=O)[C@H](Cc1c[nH]cn1)NC(=O)[C@H](CS)NC(=O)[C@H](CCC(N)=O)NC(=O)[C@H](CCCCN)NC(=O)[C@@H]1CCCN1C(=O)[C@H](Cc1c[nH]cn1)NC(=O)[C@H](Cc1ccccc1)NC(=O)[C@H](CC(N)=O)NC(=O)CNC(=O)[C@H](CC(N)=O)NC(=O)[C@@H](N)CCCNC(=N)N)C(=O)N[C@@H](CC(=O)O)C(=O)NCC(=O)N[C@@H](CCC(N)=O)C(=O)N[C@@H](CCCNC(=N)N)C(=O)NCC(=O)N[C@@H](CCCCN)C(=O)N[C@@H](CS)C(=O)N[C@@H](Cc1c[nH]c2ccccc12)C(=O)O [imm4] (H-RNGNFHPKQCHPALDGQRGKCW-OH; N-terminus and C-terminus assumed),3.6 ± 1.3,3.6 ± 7.0,0.1 ± 0.0,6.8 ± 24.1,14.6 ± 22.6,105
CC[C@H](C)[C@H](NC(=O)CNC(=O)[C@H](CCCNC(=N)N)NC(=O)[C@H](CCCCN)NC(=O)[C@H](CCCNC(=N)N)NC(=O)CNC(=O)[C@H](CCCNC(=N)N)NC(=O)[C@H](CO)NC(=O)[C@@H]1CCCN1C(=O)[C@H](CCCCN)NC(=O)[C@H](CS)NC(=O)[C@H](CCC(N)=O)NC(=O)[C@H](CCCCN)NC(=O)[C@H](CCCNC(=N)N)NC(=O)[C@H](CCCCN)NC(=O)[C@H](Cc1ccc(O)cc1)NC(=O)[C@H](Cc1ccccc1)NC(=O)CNC(=O)[C@H](CCCCN)NC(=O)[C@@H](N)CCCNC(=N)N)C(=O)N[C@@H](CS)C(=O)N[C@@H](Cc1c[nH]c2ccccc12)C(=O)O [imm5] (H-RKGFYKRKQCKPSRGRKRGICW-OH; N-terminus and C-terminus assumed),17.2 ± 0.3**,90.0 ± 19.6**,1.6 ± 0.4,95.1 ± 25.7,60.0 ± 8.6**,93
N=C(N)NCCC[C@H](NC(=O)[C@H](CCCNC(=N)N)NC(=O)[C@H](CCC(N)=O)NC(=O)CNC(=O)[C@H](CCC(N)=O)NC(=O)[C@H](CO)NC(=O)[C@H](CO)NC(=O)[C@H](CCCNC(=N)N)NC(=O)[C@H](CS)NC(=O)[C@H](CCC(N)=O)NC(=O)[C@H](CCCNC(=N)N)NC(=O)[C@H](CCCCN)NC(=O)[C@H](CCCNC(=N)N)NC(=O)[C@H](Cc1ccc(O)cc1)NC(=O)[C@H](Cc1ccccc1)NC(=O)CNC(=O)[C@H](CCCNC(=N)N)NC(=O)[C@@H](N)Cc1c[nH]cn1)C(=O)NCC(=O)N1CCC[C@H]1C(=O)N[C@@H](CS)C(=O)N[C@@H](Cc1c[nH]c2ccccc12)C(=O)O [imm6] (H-HRGFYRKRQCRSSQGQRRGPCW-OH; N-terminus and C-terminus assumed),12.9 ± 0.5**,42.0 ± 11.6**,6.8 ± 2.0,97.2 ± 17.3,44.9 ± 14.1**,112
